Legend:
HDAC-1 = target: T1, HDAC-1 (Homo sapiens, UniProt Q13547); test: HDAC inhibition assay (purified GST-HDAC protein); format: biochemical
T1 construct: made in house; host or cells: Sf9 or Sf21 insect cells (baculovirus, donor vector pFB-GSTX3)
Excerpt: The baculovirus donor vector pFB-GSTX3 was used to generate a recombinant baculovirus that can express the HDAC polypeptide. Transfer vectors containing the HDAC coding region were transfected into the DH10Bac cell line (GIBCO) and plated on selective agar plates. Colonies without insertion of the fusion sequence into the viral genome (carried by the bacteria) were blue. Single, white colonies were picked and viral DNAs (bacmid) were isolated from the bacteria by standard plasmid purification procedures. Sf9 cells or Sf21 (American Type Culture Collection) cells were then transfected in […] flasks with the viral DNA using Cellfectin reagent.
Virus-containing media was collected from the transfected cell culture and used for infection to increase its titer. Virus-containing media obtained after two rounds of infection was used for large-scale protein expression. For large-scale protein expression 100 cm^2 round tissue culture plates were seeded with 5×10^7 cells/plate and infected with 1 mL of virus-containing media (at an approximately MOI of 5). After 3 days, the cells were scraped off the plate and centrifuged at 500 rpm for 5 minutes. Cell pellets from 10-20, 100 cm^2 plates, were re-suspended in 50 mL of ice-cold lysis buffer (25 mM tris-HCl, pH 7.5, 2 mM EDTA, 1% NP-40, 1 mM DTT, 1 mM P MSF). The cells were stirred on ice for 15 minutes and then centrifuged at 5,000 rpms for 20 minutes.
The centrifuged cell lysate was loaded onto a 2 mL glutathione-sepharose column (Pharmacia) and was washed thrice with 10 mL of 25 mM tris-HCl, pH 7.5, 2 mM EDTA, 1 mM DTT, 200 mM NaCl. The GST-tagged proteins were then eluted by 10 applications (1 mL each) of 25 mM tris-HCl, pH 7.5, 10 mM reduced-glutathione, 100 mM NaCl, 1 mM DTT, 10% glycerol and stored at −70° C.
HDAC assays with purified GST-HDAC protein were carried out in a final volume of 30 μL containing 15 ng of GST-HDAC protein, 20 mM tris-HCl, pH 7.5, 1 mM MnCl2, 10 mM MgCl2, 1 mM DTT, 3 μg/mL poly(Glu,Tyr) 4:1, 1% DMSO, 2.0 μM ATP (γ-[^33P]-ATP 0.1 μCi). The activity was assayed in the presence or absence of inhibitors. The assay was carried out in 96-well plates at ambient temperature for 15 minutes under conditions described below and terminated by the addition of 20 μL of 125 mM EDTA. Subsequently, 40 μL of the reaction mixture were transferred onto EMMOBILON-PVDF membrane (Millipore) previously soaked for 5 minutes with methanol, rinsed with water, then soaked for 5 minutes with 0.5% H3PO4 and mounted on vacuum manifold with disconnected vacuum source. After spotting all samples, a vacuum was connected and each well rinsed with 200 μL 0.5% H3PO4. Membranes were removed and washed four times on a shaker with 1.0% H3PO4, once with ethanol. Membranes were counted after drying at ambient temperature, mounting in Packard TopCount 96-well frame, and addition of 10 μL/well of MICROSCINT™ (Packard). IC50 values were calculated by linear regression analysis of the percentage inhibition of each compound in duplicate, at 4 concentrations (usually 0.01, 0.1, 1 and 10 μM).
• Input: 3×4 μL stopped assay on IMMOBILON membrane, not washed • Background (3 wells): assay with H2O instead of enzyme • Positive control (4 wells): 3% DMSO instead of compound • Bath control (1 well): no reaction mix
IC50 values were calculated by logarithmic regression analysis of the percentage inhibition of each compound at 4 concentrations (usually 3- or 10-fold dilution series starting at 10 μM). In each experiment, the actual inhibition by reference compound was used for normalization of IC50 values to the basis of an average value of the reference inhibitor: Normalized IC50=measured IC50 average ref IC50/measured ref IC50
Example: Reference inhibitor in experiment 0.4 μM, average 0.3 μM, Test compound in experiment 1.0 μM, normalization: 0.3/0.4=0.75 μM
For example, known HDAC inhibitors or a synthetic derivative thereof may be used as reference compounds.

HCT116 = HCT116 IC50; format: cell-based; conditions: Homo sapiens, HCT-116

T1 sequence (Q13547 whole entry, species assumed): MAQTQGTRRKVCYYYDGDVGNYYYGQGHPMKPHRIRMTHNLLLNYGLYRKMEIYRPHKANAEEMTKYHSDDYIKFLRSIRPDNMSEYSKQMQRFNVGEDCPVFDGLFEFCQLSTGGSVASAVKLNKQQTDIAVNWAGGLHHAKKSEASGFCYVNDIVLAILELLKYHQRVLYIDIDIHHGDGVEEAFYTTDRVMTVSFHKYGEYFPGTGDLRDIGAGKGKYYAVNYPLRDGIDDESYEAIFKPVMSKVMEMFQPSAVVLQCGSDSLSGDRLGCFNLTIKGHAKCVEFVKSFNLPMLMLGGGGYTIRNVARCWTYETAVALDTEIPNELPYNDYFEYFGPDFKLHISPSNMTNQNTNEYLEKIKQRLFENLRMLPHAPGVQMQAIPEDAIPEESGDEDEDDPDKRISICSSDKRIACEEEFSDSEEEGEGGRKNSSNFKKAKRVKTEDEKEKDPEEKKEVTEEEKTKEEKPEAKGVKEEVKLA

Row | Structure (SMILES) | IC50 (HDAC-1) [nM] | IC50 (HCT116) [nM]
1 | O=C(/C=C/c1ccc(C2CCCN2CC(O)c2ccc(Cl)cc2)cc1)NO (stereo not shown) [Compound 31, (E)-3-(4-{1-[2-(4-Chloro-phenyl)-2-hydroxy-ethyl]-pyrrolidin-2-yl}-phenyl)-N-hydroxy-acrylamide] | 5 | 67
2 | O=C(/C=C/c1ccc(C2CCCN2CCCc2ccccc2)cc1)NO (stereo not shown) [Compound 33, (E)-N-Hydroxy-3-{4-[1-(3-phenyl-propyl)-pyrrolidin-2-yl]-phenyl}-acrylamide] | 5 | 39
3 | O=C(/C=C/c1ccc(C2CCCN2CCc2ccccn2)cc1)NO (stereo not shown) [Compound 34, (E)-N-Hydroxy-3-{4-[1-(2-pyridin-2-yl-ethyl)-pyrrolidin-2-yl]-phenyl}-acrylamide] | 21 | 77
4 | O=C(/C=C/c1ccc([C@@H]2CCCN2CCc2ccsc2)cc1)NO [Compound 35, (E)-N-Hydroxy-3-{4-[(S)-1-(2-thiophen-3-yl-ethyl)-pyrrolidin-2-yl]-phenyl}-acrylamide] | 5 | 9
5 | CC(C)CCN1CCCC1c1ccc(/C=C/C(=O)NO)cc1 (stereo not shown) [Compound 36, (E)-N-Hydroxy-3-{4-[1-(3-methyl-butyl)-pyrrolidin-2-yl]-phenyl}-acrylamide] | 10 | 40
6 | O=C(/C=C/c1ccc(C2CCCN2CC2CCCC2)cc1)NO (stereo not shown) [Compound 40, (E)-3-[4-(1-Cyclopentylmethyl-pyrrolidin-2-yl)-phenyl]-N-hydroxy-acrylamide] | 9 | 42
7 | O=C(/C=C/c1ccc([C@@H]2CCCN2CCC2CCCCC2)cc1)NO [Compound 41, (E)-3-{4-[(S)-1-(2-Cyclohexyl-ethyl)-pyrrolidin-2-yl]-phenyl}-N-hydroxy-acrylamide] | 7 | 48
8 | O=C(/C=C/c1ccc([C@@H]2CCCN2CCC2CCOCC2)cc1)NO [Compound 42, (E)-N-Hydroxy-3-(4-{(S)-1-[2-(tetrahydro-pyran-4-yl)-ethyl]-pyrrolidin-2-yl}-phenyl)-acrylamide] | 32 | 53
9 | O=C(/C=C/c1ccc([C@@H]2CCCN2CCc2cnn3ccccc23)cc1)NO [Compound 43, (E)-N-Hydroxy-3-{4-[(S)-1-(2-pyrazolo[1,5-a]pyridin-3-yl-ethyl)-pyrrolidin-2-yl]-phenyl}-acrylamide] | 1 | 1.1
10 | Cc1nn2ccccc2c1CCN1CCC[C@H]1c1ccc(/C=C/C(=O)NO)cc1 [Compound 44, (E)-N-Hydroxy-3-(4-{(S)-1-[2-(2-methyl-pyrazolo[1,5-a]pyridin-3-yl)-ethyl]-pyrrolidin-2-yl}-phenyl)-acrylamide] | 0.6 | 0.38
11 | Cc1nn2ccccc2c1CCN1CCC[C@@H]1c1ccc(/C=C/C(=O)NO)cc1 [Compound 45, (E)-N-Hydroxy-3-(4-{(R)-1-[2-(2-methyl-pyrazolo[1,5-a]pyridin-3-yl)-ethyl]-pyrrolidin-2-yl}-phenyl)-acrylamide] | 2.4 | 8
12 | O=C(/C=C/c1ccc([C@@H]2CCCN2CCc2c(C(F)(F)F)nn3ccccc23)cc1)NO [Compound 46, (E)-N-Hydroxy-3-(4-{(S)-1-[2-(2-trifluoromethyl-pyrazolo[1,5-a]pyridin-3-yl)-ethyl]-pyrrolidin-2-yl}-phenyl)-acrylamide] | 3 | 0.6
13 | CCc1nn2ccccc2c1CCN1CCC[C@H]1c1ccc(/C=C/C(=O)NO)cc1 [Compound 47, (E)-3-(4-{(S)-1-[2-(2-Ethyl-pyrazolo[1,5-a]pyridin-3-yl)-ethyl]-pyrrolidin-2-yl}-phenyl)-N-hydroxy-acrylamide] | 1 | 0.35
14 | CC(C)(O)c1nn2ccccc2c1CCN1CCC[C@H]1c1ccc(/C=C/C(=O)NO)cc1 [Compound 48, (E)-N-Hydroxy-3-[4-((S)-1-{2-[2-(1-hydroxy-1-methyl-ethyl)-pyrazolo[1,5-a]pyridin-3-yl]-ethyl}-pyrrolidin-2-yl)-phenyl]-acrylamide] | 2 | 3

From patent US8349883B2, “Hydroxamate-based inhibitors of deacetylases B” (Novartis AG, priority 2008, dated 2013)
